Results reported in patent US6828450B2, “Triptycene analogs” (Kansas State University Research Foundation, priority 2000, dated 2004).
Entries after “also recorded” stand apart in the source; their conditions may differ. Where two headings read alike, the source gives them in different places.

Key:
L1210 cells [1] = assay: Nucleoside transport (30-sec cellular uptake) in L1210 cells; type: cell-based, murine
Procedure: FIG. 10. Concentration-dependent inhibition of nucleoside transport by the TT analog TT2 in L1210 cells in vitro. […] After washing thrice with PBS, intact cell pellets were harvested by centrifugation, incubated for 30 min in 1 ml of HLB containing 0.2% Triton X-100, and these lysates were mixed with scintillation cocktail and counted to estimate the cellular uptake of ^3H-thymidine. Results are expressed as % of ^3H-thymidine transported into vehicle-treated control cells over 30 sec (15,031±872 cpm; 100±6%; striped area).
FIG. 11. Comparison of the inhibitory effects of novel TT analogs on DNA synthesis (open) and nucleoside transport (striped) in L1210 cells in vitro. The cellular uptake of ^3H-thymidine (striped) and the rate of ^3H-thymidine incorporation into DNA (open) were determined in cells (1.38×10^6/0.5 ml of RPMI 1640 medium) respectively preincubated at 37° C. for 15 or 90 min in the presence or absence (control) of 7 μM concentrations of the indicated compounds. For the cellular transport of nucleosides, preincubated cells were then exposed to 1 μCi of ^3H-thymidine for 30 sec at 37° C. Results are expressed as % of ^3H-thymidine transported into vehicle-treated control cells over 30 sec (15,539±1,767 cpm; 100±11%; striped control). For DNA synthesis, preincubated cells were then pulse-labeled with 1 μCi of ^3H-thymidine for an additional 30 min at 37° C. Results are expressed as % of ^3H-thymidine incorporation into DNA in vehicle-treated control cells over 30 min (28,505±2,594 cpm; 100±9%; open control). The blank value (1,075±171 cpm) for cells incubated and pulse-labeled at 2° C. with 1 μCi of ^3H-thymidine has been substracted from the results. Bars: means±SD (n=3). ^aNot different from TT3, TT7, TT9 and TT11; ^bP<0.01, smaller than TT1 but not different from TT13; ^cnot different from control; ^dP<0.025, greater than TT1; ^eP<0.05, smaller than control.
FIG. 12. Irreversibility of the inhibitory effects of the novel TT analog TT2 on DNA synthesis (open) and nucleoside transport (striped) in L1210 cells in vitro. […] The cellular uptake of ^3H-thymidine (striped) and the rate of ^3H-thymidine incorporation into DNA (open) were determined in cells (1.64×10^6/0.5 ml of RPMI 1640 medium) respectively preincubated at 37° C. for 15 or 60 min in the presence or absence (control) of 10 and 25 μM TT2 or 25 μM H10. The protocol of the experiments and the determination of the results were identical to those of FIGS. 9 and 10, except that, after preincubation, either the drugs were maintained in the culture medium (+) or the cells were spun, washed, and resuspended in fresh medium in order to remove the drugs (−). After preincubation, vehicle-treated controls were similarly spun and washed. For the cellular transport of nucleosides, preincubated cells were then exposed, in the presence (+) or absence (−) of TT2 or H10, to 1 μCi of ^3H-thymidine for 30 sec at 37° C. Results are expressed as % of ^3H-thymidine transported into vehicle-treated control cells over 30 sec (11,054±754 cpm; 100±7%; striped control+; 14,486±1,260 cpm; 100±9%; striped control−). For DNA synthesis, preincubated cells were then pulse-labeled with 1 μCi of ^3H-thymidine for an additional 30 min at 37° C. in the presence (+) or absence (−) of TT2 or H10. Results are expressed as % of ^3H-thymidine incorporation into DNA in vehicle-treated control cells over 30 min (34,052±1,566 cpm; 100±5%; open control+; 28,811±2,506 cpm; 100±9%; open control−). The blank value (1,328±86 cpm) for cells incubated and pulse-labeled at 2° C. with 1 μCi of ^3H-thymidine has been substracted from the results. Bars: means±SD (n=3).
L1210 cells (about 1.5×10^6 cells/0.5 ml) were preincubated for 15 min at 37° C. in the presence or absence of TTs and then exposed to 1 μCi of ^3H-thymidine for only 30 sec to assess the cellular uptake of nucleoside over such very short period of time. […]

L1210 cells [2] = assay: cells; conditions: for cytotoxicity at 0.041 µM: read-out: % inhibition of L1210 cell viability; for inhibitory effect on L1210 cell viability: 256 nM, 4 days
Procedure: FIG. 1. […] For tumor cell growth and viability, L1210 cells were respectively seeded in triplicate at initial densities of 1×10^4 and 1.11×10^4 cells/0.5 ml/well in RPMI 1640 medium containing 7.5% FCS and penicillin (100 IU/ml)-streptomycin (100 μg/ml), and grown for 4 days in the presence or absence (control) of 256 nM concentrations of the indicated compounds in a humidified incubator at 37° C. with 5% CO2 in air. Cell density was monitored using a Coulter counter. […] The ability of viable cells/0.5 ml to bioreduce 0.1 ml of MTS:PMS (20:1) reagent over a 3-h incubation period at 37° C. was assessed by measuring the absorbamce of the water-soluble formazan products at A490 nm.
FIG. 4. […] Cells were seeded in triplicate at initial densities of 100,000 or 11,100 cells/0.5 ml/well and respectively incubated for 2 or 4 days in the presence or absence (control) of the indicated concentrations of drugs, which are plotted on a logarithmic scale. The ability of viable cells/0.5 ml to bioreduce 0.1 ml of MTS:PMS (20:1) reagent over a 3-h incubation period was assessed as described in FIG. 1.
TT0 was purchased from Aldrich (Milwaukee, Wis.). All solutions of synthetic TTs and tricyclic pyrone H10, vincristine (VCR; a gift from Lilly Researeh Laboratories, Indianapolis, Ind.) and camptothecin (CPT; from Sigma Chemical Co., St Louis, Mo.) were dissolved and diluted in dimethyl sulfoxide (DMSO), whereas daunomycin (DAU) (from Sigma) solutions were prepared in 0.1 M potassium phosphate buffer, pH 7.4, containing 0.9% NaCl. Suspension cultures of murine L1210 lymphocytic leukemia cells (American Type Culture Collection, Rockville, Md.) were maintained in continuous exponential growth by twice-a-week passage in RPMI 1640 medium supplemented with 7.5% fortified bovine calf serum (FCS; HyClone Laboratories, Logan, Utah) and penicillin (100 IU/ml)-streptomycin (100 μg/ml), and incubated in the presence or absence of drugs at 37° C. in a humidified atmosphere containing 5% CO2. […] Control cells incubated in the absence of drugs were similarly treated with vehicle only and, in every experiment, all incubates received the same volume of solvent. For drug removal, incubates were spun at 200×g for 10 min, drug-containing supernatants were discarded, and intact cells were washed thrice with 1 ml of the above RPMI 1640 culture medium and resuspended in 0.5 ml of fresh medium for further incubation.
L1210, HL-60-S, HL60-RV and HL-60-R8 cells suspended in FCS-containing RPMI 1640 medium were grown in 48-well Costar cell culture plates for up to 4 days in the presence or absence of drugs to evaluate drug cytotoxicity.

[3] = read-out: IC50 (concentration inhibiting by 50% the viability of L1210 leukemic cells), day 4, Table 2 series

How did the “effect of DAU on cellular transport of nucleosides” value (L1210 cells [1]; 15-min treatment, 30-sec uptake, 10 μM DAU) turn out when `COc1cccc2c1C(=O)c1c(O)c3c(c(O)c1C2=O)C[C@@](O)(C(C)=O)C[C@@H]3O[C@H]1C[C@H](N)[C@H](O)[C@H](C)O1` [DAU, daunomycin, reference compound] was run?
Its value is “inactive; also recorded: totally unable”.

And the “times DAU is more cytotoxic than TT2” value (L1210 cells [2])?
The value was “about 3.5 times”.

And the cytotoxicity at 0.041 µM (L1210 cells [2]; Mus musculus, L1210, 48 h)?
The cytotoxicity at 0.041 µM was 32%.

And the IC50 (L1210 cells [2]; Mus musculus, L1210, 48 h, read-out: IC50, inhibition of L1210 cell viability)?
The IC50 was 70 nM.

What about the cytotoxicity at 0.041 µM (L1210 cells [2]; Mus musculus, L1210, 96 h) of the same molecule?
The cytotoxicity at 0.041 µM was 65%.

And the IC50 (L1210 cells [2]; Mus musculus, L1210, 96 h, read-out: IC50 (concentration inhibiting by 50% the viability of L1210 leukemic cells))?
Its IC50 is 41 nM.

What about the IC50 (L1210 cells [2]; Mus musculus, L1210, 96 h, read-out: IC50, inhibition of L1210 cell viability) of the same molecule?
The IC50 was 30 nM.

Which results are given for `COC1=CC(=O)C2=C(C1=O)C1C3=C(C(=O)C=CC3=O)C2c2ccccc21` (stereo not drawn) [TT2, 2-Methoxy-9,10-dihydro-9,10-[1′,2′]benzenoanthracene-1,4,5,8-tetraone]?
% inhibition of nucleoside transport (L1210 cells [1]; 10 μM TT2, 15-min preincubation): 67%; effect on nucleoside transport (L1210 cells [1]; 25 μM TT2): totally inhibited; % inhibition of nucleoside transport (L1210 cells [1]; 25 μM TT2, 15-min preincubation): 93%; reversibility of the inhibition of nucleoside transport upon drug removal (L1210 cells [1]; 10 and 25 μM TT2 or 25 μM H10, 15-min preincubation): irreversible; IC50 (L1210 cells [1]; 15-min pretreatment, 30-sec uptake, read-out: IC50, inhibition of cellular transport of nucleosides): 6000 nM; IC50 (L1210 cells [2]; [3]): 270 nM; IC50 (L1210 cells [2]; read-out: IC50, inhibition of L1210 cell viability, day 2): 250 nM; IC50 (L1210 cells [2]; read-out: IC50, inhibition of L1210 cell viability, day 4): 100 nM

With `COC(=O)C1=C(C(=O)OC)C[C@H]2C(=O)C3=C(C(=O)[C@H]2C1)C1C2=C(C(=O)[C@H]4CC(C(=O)OC)=C(C(=O)OC)C[C@H]4C2=O)C3c2ccccc21` [TT4, (4aS*,7aR*,11aS*,14aR*)-Tetramethyl 1,4,4a,5,6,7,7a,8,11,11a,12,13,14,14a-tetradecahydro-5,7,12,14-tetraoxo-6,13-[1′,2′]benzenopentacene-2,3,9,10-tetracarboxylate] as the molecule, how does the “effect on nucleoside transport” value (L1210 cells [1]; 7 μM, 15 min) read?
The value was “alter neither”.

What about the “inhibitory effect on L1210 cell viability” value (L1210 cells [2]) of the same molecule?
Its value is “inactive”.

For `COC(=O)C1=C(C(=O)OC)C[C@H]2[C@@H](C1)[C@@H](O)C1=C(C3C4=C(C1c1ccccc13)[C@@H](O)[C@H]1CC(C(=O)OC)=C(C(=O)OC)C[C@H]1[C@H]4O)[C@H]2O` [TT12, (4aS*,5S*,7R*,12S*,14R*,7aR*,11aS*,14aR*)-Tetramethyl 1,4,4a,5,6,7,7a,8,11,11a,12,13,14,14a-tetradecahydro-5,7,12,14-tetrahydroxy-6,13-[1′,2′]benzenopentacene-2,3,9,10-tetracarboxylate], which “effect on nucleoside transport” value (L1210 cells [1]; 7 μM, 15 min) is on record?
Its value is “alter neither”.

And the “inhibitory effect on L1210 cell viability” value (L1210 cells [2])?
The value was “inactive”.

Which “potency on cellular transport of adenosine and thymidine compared with TT2” value (L1210 cells [1]; FIG. 13) does the source give for `COC1=C(Br)C(=O)C2=C(C1=O)C1C3=C(C(=O)C=C(N(C)C)C3=O)C2c2ccccc21` (stereo not drawn) [TT16, 2-Bromo-3-methoxy-6-(dimethylamino)-9,10-dihydro-9,10-[1′,2′]benzenoanthracene-1,4,5,8-tetraone] here?
Its value is “as potent as TT2”.

What about the IC50 (L1210 cells [2]; [3]) of the same molecule?
Its IC50 is 300 nM.
